Results from patent US6949544B2, “Inhibitors of c-Jun N-terminal kinases (JNK) and other protein kinases” (Vertex Pharmaceuticals Incorporated, priority 2001, dated 2005).

Legend:
Assay type in all cases: biochemical
[1] = target: T1, full length recombinant human Src kinase (Homo sapiens, UniProt P12931); assay: Src inhibition assay (33P incorporation into poly Glu-Tyr); details: for Ki: 10 μM ATP, read-out: Activity in the SRC Inhibition Assay (Ki rating A-C); for inhibition at 2 µM: at a 2 μM inhibitor concentration, read-out: Activity in the SRC Inhibition Assay (percent inhibition rating D-F)
T1 construct: full length recombinant human Src kinase; purchased Upstate Biotechnology 14-117; host or cells: baculo viral cells (baculovirus expression)
T1 sequence (P12931 whole entry): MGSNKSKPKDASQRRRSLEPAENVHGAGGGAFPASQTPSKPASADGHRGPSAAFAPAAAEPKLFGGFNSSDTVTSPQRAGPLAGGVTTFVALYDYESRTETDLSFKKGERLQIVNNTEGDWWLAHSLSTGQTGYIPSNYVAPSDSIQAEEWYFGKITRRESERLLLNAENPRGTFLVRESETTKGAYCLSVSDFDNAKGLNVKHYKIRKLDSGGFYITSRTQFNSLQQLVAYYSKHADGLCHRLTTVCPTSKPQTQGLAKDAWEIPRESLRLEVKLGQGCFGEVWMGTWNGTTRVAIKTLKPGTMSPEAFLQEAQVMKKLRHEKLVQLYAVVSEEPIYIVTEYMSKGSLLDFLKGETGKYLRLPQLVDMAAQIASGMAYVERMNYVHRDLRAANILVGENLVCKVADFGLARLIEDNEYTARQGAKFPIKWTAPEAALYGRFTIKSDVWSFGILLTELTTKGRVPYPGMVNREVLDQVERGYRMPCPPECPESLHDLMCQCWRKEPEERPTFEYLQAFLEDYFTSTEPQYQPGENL
Procedure: The compounds were assayed as inhibitors of full length recombinant human Src kinase (from Upstate Biotechnology, cat. no. 14-117) expressed and purified from baculo viral cells. Src kinase activity was monitored by following the incorporation of ^33P from ATP into the tyrosine of a random poly Glu-Tyr polymer substrate of composition, Glu:Tyr=4:1 (Sigma, cat. no. P-0275). The following were the final concentrations of the assay components: 0.05 M HEPES, pH 7.6, 10 mM MgCl2, 2 mM DTT, 0.25 mg/ml BSA, 10 μM ATP (1-2 μCi ^33P-ATP per reaction), 5 mg/ml poly Glu-Tyr, and 1-2 units of recombinant human Src kinase. In a typical assay, all the reaction components with the exception of ATP were pre-mixed and aliquoted into assay plate wells. […] The assay plate was incubated at 30° C. for 10 min before initiating the reaction with ^33P-ATP. After 20 min of reaction, the reactions were quenched with 150 μl of 10% trichloroacetic acid (TCA) containing 20 mM Na3PO4. The quenched samples were then transferred to a 96-well filter plate (Whatman, UNI-Filter GF/F Glass Fiber Filter, cat no. 7700-3310) installed on a filter plate vacuum manifold. Filter plates were washed four times with 10% TCA containing 20 mM Na3PO4 and then 4 times with methanol. 200 μl of scintillation fluid was then added to each well. The plates were sealed and the amount of radioactivity associated with the filters was quantified on a TopCount scintillation counter.

[2] = target: Glycogen Synthase Kinase 3 (GSK-3) (Homo sapiens, UniProt P49841); assay: GSK-3 inhibition assay (standard coupled enzyme assay); details: 60 nM GSK-3, 10 μM ATP; read-out: GSK-3 Inhibitory Activity (Ki rating A-C)
Sequence of Glycogen Synthase Kinase 3 (GSK-3) (P49841 whole entry): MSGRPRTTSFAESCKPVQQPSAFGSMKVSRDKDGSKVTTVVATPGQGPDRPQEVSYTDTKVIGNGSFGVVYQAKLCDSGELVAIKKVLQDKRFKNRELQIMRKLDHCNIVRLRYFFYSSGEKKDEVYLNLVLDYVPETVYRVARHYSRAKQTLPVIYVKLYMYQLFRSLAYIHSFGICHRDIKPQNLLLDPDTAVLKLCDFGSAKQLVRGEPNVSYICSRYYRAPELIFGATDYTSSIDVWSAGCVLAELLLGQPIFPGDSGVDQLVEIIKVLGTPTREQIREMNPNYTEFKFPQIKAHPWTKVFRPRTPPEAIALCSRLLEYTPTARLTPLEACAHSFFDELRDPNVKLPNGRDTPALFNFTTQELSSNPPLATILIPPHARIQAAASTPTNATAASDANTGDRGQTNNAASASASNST
Procedure: Compounds were screened in the following manner for their ability to inhibit Glycogen Synthase Kinase 3 (GSK-3) using a standard coupled enzyme assay (Fox et al (1998) Protein Sci 7, 2249). To an assay stock buffer solution containing 0.1M HEPES 7.5, 10 mM MgCl2, 25 mM NaCl, 2.5 mM phosphoenolpyruvate, 300 μM NADH, 1 mM DTT, 30 μg/mL pyruvate kinase, 10 μg/mL lactate dehydrogenase, 300 μM peptide (HSSPHQp-SEDEEE, American Peptide, Sunnyvale, Calif.), and 60 nM GSK-3, was added a 30 μM solution of the compound in DMSO and the resulting mixture incubated at 30° C. for 5 min. The reaction was initiated by the addition of 10 μM ATP. The rates of reaction were obtained by monitoring absorbance at 340 nm over a 5 minute read time at 30° C. using a Molecular Devices plate reader (Sunnyvale, Calif.). The IC50 was determined from the rate data as a function of inhibitor concentration.

[3] = target: T2, activated JNK3 (Homo sapiens, UniProt P53779); assay: JNK inhibition assay (spectrophotometric coupled-enzyme assay); details: for Ki: 10 nM activated JNK3, 10 μM ATP, read-out: Activity in the JNK3 Inhibition Assay (Ki rating A-C)
T2 construct: One such construct encodes amino acid residues Ser40-Glu402 of JNK3α1 and is preceded by Met and Gly residues; Met-Gly (initiator methionine and added glycine) (N); made in house; host or cells: E. coli BL21 (DE3)
T2 sequence (P53779 40-402): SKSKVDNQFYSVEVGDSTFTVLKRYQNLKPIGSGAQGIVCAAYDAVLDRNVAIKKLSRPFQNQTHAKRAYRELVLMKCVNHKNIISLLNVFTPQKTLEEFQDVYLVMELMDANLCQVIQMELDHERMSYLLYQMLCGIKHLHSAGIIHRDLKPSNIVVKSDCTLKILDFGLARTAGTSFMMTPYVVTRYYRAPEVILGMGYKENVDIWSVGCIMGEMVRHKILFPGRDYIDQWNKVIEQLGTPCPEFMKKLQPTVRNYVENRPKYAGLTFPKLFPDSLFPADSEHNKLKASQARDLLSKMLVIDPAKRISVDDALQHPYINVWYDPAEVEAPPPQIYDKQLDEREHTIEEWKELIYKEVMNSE
How it was run: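 Activated (doubly phosphorylated, MKK7(DD)-activated) human JNK3, 10 nM, preincubated 10 min at 30 °C with inhibitor in 0.1 M HEPES pH 7.5, 10 mM MgCl2, 200 μM EGF receptor peptide, PK/LDH-coupled. Started with 10 μM ATP; A340 decrease followed at 30 °C. Ki from competitive inhibition model fit.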

[4] = target: CDK-2/Cyclin A (Homo sapiens, UniProt P24941); assay: CDK2 inhibition assay (standard coupled enzyme assay); details: 25 nM CDK-2/Cyclin A; read-out: CDK2 Inhibitory Activity (Ki rating A-C)
How it was run: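 Pyruvate kinase/lactate dehydrogenase-coupled assay in pH 7.5 HEPES with 100 μM peptide substrate and ATP […]; compound (30 μM final) preincubated 10 min at 30° C before adding CDK-2/Cyclin A to 25 nM.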

[5] = target: T3, Lck kinase purified from bovine thymus (Bos taurus, UniProt Q3ZCM0); assay: Lck inhibition assay (33P incorporation into poly Glu-Tyr); details: for Ki: 10 μM ATP, read-out: Activity in the Lck Inhibition Assay (Ki rating A-C)
T3 construct: Lck kinase purified from bovine thymus; purchased Upstate Biotechnology 14-106; host or cells: bovine thymus (tissue-purified)
T3 sequence (Q3ZCM0 1-509): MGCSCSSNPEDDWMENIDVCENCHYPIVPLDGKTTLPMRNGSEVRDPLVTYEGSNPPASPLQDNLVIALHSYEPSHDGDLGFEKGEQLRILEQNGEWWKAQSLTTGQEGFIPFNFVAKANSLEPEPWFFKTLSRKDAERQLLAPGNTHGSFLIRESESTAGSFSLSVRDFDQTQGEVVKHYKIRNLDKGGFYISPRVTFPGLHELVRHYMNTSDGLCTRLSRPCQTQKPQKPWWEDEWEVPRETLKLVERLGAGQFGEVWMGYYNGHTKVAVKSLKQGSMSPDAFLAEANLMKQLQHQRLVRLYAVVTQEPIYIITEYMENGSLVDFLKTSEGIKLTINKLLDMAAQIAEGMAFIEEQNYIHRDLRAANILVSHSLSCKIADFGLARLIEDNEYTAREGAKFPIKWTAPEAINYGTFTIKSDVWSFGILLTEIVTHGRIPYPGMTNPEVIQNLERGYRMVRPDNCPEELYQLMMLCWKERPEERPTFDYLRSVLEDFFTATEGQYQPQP
How it was run: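 Filter-binding radiometric assay of 33P transfer from ATP to poly Glu-Tyr (4:1, 5 mg/ml) by bovine thymus Lck in 0.05 M HEPES pH 7.6, 10 mM MgCl2, 2 mM DTT, 0.25 mg/ml BSA, 10 μM ATP. After 10 min at 30° C, reaction started with 33P-ATP, run 20 min, quenched with TCA; filter-bound radioactivity counted by scintillation.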

Row | SMILES | Ki [1] [nM] | Ki [2] [nM] | Ki [3] [nM] | inhibition at 2 µM [1] [%] | Ki [4] [nM] | also measured
1 | COc1ccc(-c2cccc(F)c2)cc1Nc1nccc(-c2ccc(OC)c(OC)c2OC)n1 [II-64] | < 100 | > 1000 | – | – | – | –
2 | CCOc1c(OC)cc(-c2ccnc(Nc3cccc(OC)c3)n2)cc1OC [Compound I-50] | – | – | < 100 | 67 to 100 | – | –
3 | COc1cc(-c2ccnc(Nc3ccc(Cl)cc3)n2)cc(OC)c1OC [Compound I-1] | > 1000 | > 1000 | 100 to 1000 | – | > 5000 | –
4 | COc1ccc(-c2ccnc(Nc3cc(-c4cccc(Cl)c4)ccc3F)n2)c(OC)c1OC [II-66] | > 1000 | > 1000 | – | – | – | –
5 | COc1ccc(-c2ccnc(Nc3cccc(Oc4ccccc4)c3)n2)c(OC)c1OC [II-1] | < 100 | – | – | – | – | Ki [5]: < 100 nM
6 | COc1cc(-c2ccnc(Nc3cccc(F)c3)n2)cc(OC)c1OC [Compound I-60] | – | – | < 100 | 67 to 100 | > 5000 | –
7 | COc1ccc(Nc2nccc(-c3cc(OC)c4c(c3)OCCO4)n2)cc1 [Compound I-78] | – | – | < 100 | 24 to 66 | – | –
8 | COc1cc(-c2ccnc(Nc3ccc(C)cc3)n2)cc2c1OCCO2 [Compound I-82] | – | – | < 100 | < 33 | – | –
9 | COc1cc(-c2ccnc(Nc3ccc(Cl)cc3)n2)cc2c1OCCO2 [Compound I-76] | – | – | < 100 | 24 to 66 | – | –
10 | COc1ccc(Nc2nccc(-c3ccc(OC)c(OC)c3OC)n2)cc1-c1cccc(Cl)c1 [II-67] | < 100 | < 100 | – | – | – | –
11 | COc1cc(Nc2nccc(-c3cc(OC)c(OC)c(OC)c3)n2)cc(OC)c1 [Compound I-12] | – | 100 to 1000 | < 100 | < 33 | > 5000 | –
12 | COc1cc(-c2ccnc(Nc3cccc(Cl)c3)n2)cc2c1OCCO2 [Compound I-75] | – | < 100 | < 100 | 67 to 100 | – | –
13 | COc1ccc(-c2ccnc(Nc3cccc(-c4ccccc4C)c3)n2)c(OC)c1OC [II-62] | 100 to 1000 | – | – | – | > 5000 | Ki [5]: > 1000 nM
14 | COc1ccc(-c2cccc(Cl)c2)cc1Nc1nccc(-c2ccc(OC)c(OC)c2OC)n1 [II-65] | 100 to 1000 | > 1000 | – | – | – | –
15 | COc1cc(-c2ccnc(NC3CCCCC3)n2)cc(OC)c1OC [Compound I-4] | > 1000 | > 1000 | 100 to 1000 | – | > 5000 | –
16 | COc1cc(-c2ccnc(Nc3ccccc3)n2)cc2c1OCCO2 [Compound I-74] | – | – | < 100 | 24 to 66 | – | –
17 | COc1c(Br)cc(-c2ccnc(Nc3cccc(F)c3)n2)cc1Br [Compound I-48] | – | 100 to 1000 | 100 to 1000 | 24 to 66 | – | –
18 | COc1ccc(Nc2nccc(-c3ccc(OC)c(OC)c3OC)n2)cc1-c1ccc(Cl)cc1 [II-68] | 100 to 1000 | < 100 | – | – | – | –
19 | COc1cc(-c2ccnc(Nc3cccc(C)c3)n2)cc2c1OCCO2 [Compound I-81] | – | – | < 100 | 67 to 100 | – | –

Row | SMILES | Ki [1] [nM] | Ki [2] [nM] | Ki [3] [nM] | inhibition at 2 µM [1] [%] | Ki [4] [nM] | also measured
20 | COc1cc(-c2ccnc(Nc3ccc(F)cc3)n2)cc(OC)c1OC [Compound I-3] | – | – | < 100 | < 33 | > 5000 | Ki [5]: > 1000 nM
21 | COc1cc(-c2ccnc(Nc3ccc4c(c3)OCO4)n2)cc(OC)c1OC [Compound I-63] | – | – | < 100 | 24 to 66 | – | –
22 | COc1cc(-c2ccnc(Nc3ccc(Cl)nc3)n2)cc(OC)c1OC [Compound I-61] | – | – | < 100 | < 33 | > 5000 | –
23 | COc1cc(-c2ccnc(Nc3cccc(F)c3)n2)cc2c1OCCO2 [Compound I-79] | – | – | < 100 | 24 to 66 | – | –
24 | COc1cc(-c2ccnc(Nc3ccc(F)cc3)n2)cc2c1OCCO2 [Compound I-80] | – | – | < 100 | 24 to 66 | – | –
25 | COc1cccc(Oc2cc(Nc3nccc(-c4ccc(OC)c(OC)c4OC)n3)ccc2OC)c1 [II-75] | – | < 100 | – | – | > 5000 | Ki [5]: < 100 nM
26 | COc1ccc(Nc2nccc(-c3ccc(OC)c(OC)c3OC)n2)cc1-c1cccc(F)c1 [II-69] | < 100 | < 100 | – | – | – | –
27 | COc1cc(-c2ccnc(Nc3ccc(S(N)(=O)=O)cc3)n2)cc(OC)c1OC [Compound I-66] | – | < 100 | < 100 | – | < 2000 | Activity in the Lck Inhibition Assay (percent inhibition rating D-F) ([5]; at a 5 μM inhibitor concentration): E (percent inhibition of between 24% and 66%)
28 | COc1cc(-c2ccnc(Nc3cccc(Br)c3)n2)cc(OC)c1OC [Compound I-59] | – | < 100 | < 100 | 67 to 100 | > 5000 | –
29 | COc1ccc(Nc2nccc(-c3ccc(OC)c(OC)c3OC)n2)cc1[N+](=O)[O-] [II-71] | – | > 1000 | – | – | > 5000 | Ki [5]: 100 to 1000 nM
30 | COc1ccc(Nc2nccc(-c3ccc(OC)c(OC)c3OC)n2)cc1Oc1cccc(Cl)c1 [II-74] | – | < 100 | – | – | > 5000 | Ki [5]: < 100 nM
31 | COc1cc(-c2ccnc(Nc3cccc(F)c3F)n2)cc(OC)c1OC [Compound I-13] | – | – | < 100 | 24 to 66 | > 5000 | –
32 | COc1cc(-c2ccnc(Nc3ccc4ccccc4c3)n2)cc(OC)c1OC [Compound I-62] | – | 100 to 1000 | < 100 | < 33 | – | –
33 | COc1cc(-c2ccnc(Nc3ccc(Cl)nc3)n2)cc(OC)c1O [Compound I-73] | – | – | < 100 | 24 to 66 | – | –
34 | COc1ccc(-c2ccnc(Nc3cccc(S(=O)(=O)c4ccccc4)c3)n2)c(OC)c1OC [II-24] | < 100 | – | – | – | – | Ki [5]: 100 to 1000 nM
35 | COc1ccc(-c2ccnc(Nc3cc(-c4cccc(O)c4)ccc3C)n2)c(OC)c1OC [II-47] | – | 100 to 1000 | – | – | > 5000 | Ki [5]: 100 to 1000 nM
36 | COc1ccc(Nc2nccc(-c3cc(OC)c(OC)c(OC)c3)n2)cc1OC [Compound I-64] | – | 100 to 1000 | – | 67 to 100 | – | Activity in the JNK3 Inhibition Assay (percent inhibition rating D-F) ([3]; at a 2 μM inhibitor concentration): F (percent inhibition of between 67% and 100%)
37 | COc1ccc(-c2ccnc(Nc3cccc(-c4ccc(C)cc4)c3)n2)c(OC)c1OC [II-63] | < 100 | – | – | – | – | Ki [5]: 100 to 1000 nM
38 | COc1cc(-c2ccnc(Nc3cccc(O)c3)n2)cc(OC)c1OC [Compound I-58] | – | – | < 100 | 24 to 66 | – | –
